What all share (assay): biochemical
Test [1] addresses T1, MMP-2 (Homo sapiens, UniProt P08253).
T1 construct: made in house; provided by Dr. Gregory Goldberg, Washington University
T1 sequence (P08253 110-660): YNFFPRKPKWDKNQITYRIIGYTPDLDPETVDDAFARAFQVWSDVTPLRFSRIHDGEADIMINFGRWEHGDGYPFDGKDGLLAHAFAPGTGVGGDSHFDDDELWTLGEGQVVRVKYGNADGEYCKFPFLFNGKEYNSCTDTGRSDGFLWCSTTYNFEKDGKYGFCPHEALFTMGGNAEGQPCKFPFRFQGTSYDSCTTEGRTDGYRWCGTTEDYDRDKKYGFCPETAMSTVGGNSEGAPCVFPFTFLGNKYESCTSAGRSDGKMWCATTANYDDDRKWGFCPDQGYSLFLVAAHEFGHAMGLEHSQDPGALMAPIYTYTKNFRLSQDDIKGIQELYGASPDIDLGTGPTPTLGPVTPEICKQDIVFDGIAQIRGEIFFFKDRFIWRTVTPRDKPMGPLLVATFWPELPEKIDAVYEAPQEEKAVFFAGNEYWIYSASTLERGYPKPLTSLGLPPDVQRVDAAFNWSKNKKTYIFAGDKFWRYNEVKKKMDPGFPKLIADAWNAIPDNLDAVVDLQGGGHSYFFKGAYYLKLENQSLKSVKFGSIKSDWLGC
Conditions: read-out: MMP-2 IC50. Put shortly: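 APMA- or trypsin-activated human MMPs (MMP-1 from transfected HT-1080 cells, MMP-2 from transfected cells) preincubated with inhibitor in 1% DMSO at room temperature, then 4 μM MCA-Pro-Leu-Gly-Leu-Dpa-Ala-Arg-NH2 added in Tris/NaCl/CaCl2 buffer pH 7.5. IC50 from fluorescence reduction versus inhibitor concentration.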

Test [2] addresses T2, MMP-13 (Homo sapiens, UniProt P45452).
T2 construct: made in house; host or cells: baculovirus / insect cells
Put shortly:
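APMA- or trypsin-activated enzymes were preincubated with inhibitor for 5 min at room temperature, then the fluorogenic substrate MCA-Pro-Leu-Gly-Leu-Dpa-Ala-Arg-NH2 was added to a final 4 μM.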

Test [3] addresses T3, MMP-1 (Homo sapiens, UniProt P03956).
T3 construct: made in house; host or cells: transfected HT-1080 cells (provided by Dr. Harold Welgus, Washington University)
T3 sequence (P03956 100-469): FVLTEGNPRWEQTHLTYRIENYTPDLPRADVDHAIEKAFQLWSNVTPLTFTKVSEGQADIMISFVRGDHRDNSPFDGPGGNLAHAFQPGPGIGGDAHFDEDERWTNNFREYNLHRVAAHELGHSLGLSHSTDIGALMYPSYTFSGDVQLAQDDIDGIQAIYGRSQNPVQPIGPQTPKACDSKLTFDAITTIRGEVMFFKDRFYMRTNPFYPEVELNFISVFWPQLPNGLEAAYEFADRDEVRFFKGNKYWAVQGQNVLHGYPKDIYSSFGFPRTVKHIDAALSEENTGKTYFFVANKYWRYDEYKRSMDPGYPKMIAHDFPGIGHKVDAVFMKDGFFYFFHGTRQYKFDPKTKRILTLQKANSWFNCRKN
Particulars: read-out: MMP-1 IC50. Put shortly: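 Substrate MCA-PLGL-Dpa-AR-NH2 at 4 μM final; pH 7.5 Tris/NaCl/CaCl2 buffer with 0.05% polyethyleneglycol lauryl ether, 1% DMSO, room temperature. MMP-1 was expressed in transfected HT-1080 cells and APMA-activated.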

Where [4] appears, read: recombinant human MMP-2, MCA peptide substrate 4 μM, pH 7.5, room temperature.
The mark [5] stands for this setting: recombinant human MMP-13, MCA peptide substrate 4 μM, pH 7.5, room temperature, read-out: MMP-13 IC50.
Where [6] appears, read: recombinant human MMP-1, MCA peptide substrate 4 μM, pH 7.5, room temperature.

Counter-ions that a name gives are not always drawn. Like-named read-outs stand apart in the source and are kept apart here. Some results are limits rather than exact numbers.

Take `O=C(NO)C1(S(=O)(=O)c2ccc(N3CC=CCC3)cc2)CCOCC1` [Example 210]: the figures for the IC50 in test [1] (setting [4]), in test [2] (setting [5]) and in test [3] (setting [6]) were 0.0045 µM, 5.4 nM and 4 µM, respectively.
Consider `O=C(CCc1cnc[nH]1)N1CCC(C(=O)NO)(S(=O)(=O)c2ccc(Oc3ccc(OC(F)(F)F)cc3)cc2)CC1` [Example 350], for which the IC50 – broadly, the concentration that gives 50% inhibition – in test [1] (setting [4]) was below 0.0001 µM; in test [2] (setting [5]), 0.1 nM; in test [3] (setting [6]) it was 6 µM.
For `O=C(NO)C1(S(=O)(=O)c2ccc(N3CCC(OCc4ccc(COCC(F)(F)C(F)(F)C(F)(F)F)cc4)CC3)cc2)CCOCC1` [Example 609], in that order: 2.8 µM, 30.6 nM and above 10 µM.
For `O=C(NO)C1(S(=O)(=O)c2ccc(N3CCN(S(=O)(=O)c4cccc5nsnc45)CC3)cc2)CCOCC1` [Example 691], the IC50 in test [1] (setting [4]) is 0.13 µM; in test [2] (setting [5]) it was 10 nM; in test [3] (setting [6]) it was above 10 µM.
Take `COc1cccc(S(=O)(=O)N2CCN(c3ccc(S(=O)(=O)C4(C(=O)NO)CCOCC4)cc3)CC2)c1` [Example 696]: the values for the IC50 in test [1] (setting [4]), in test [2] (setting [5]) and in test [3] (setting [6]) were 0.14 µM, 10 nM and above 10 µM, respectively.
Consider `O=C(c1ccco1)N1CCC(C(=O)NO)(S(=O)(=O)c2ccc(N3CCC(OCc4ccc(F)cc4C(F)(F)F)CC3)cc2)CC1` [Example 434], for which the IC50 was 3.7 µM in test [1] (setting [4]), 190 nM in test [2] (setting [5]) and above 10 µM in test [3] (setting [6]).
In the case of `O=C(CN1CCCC1)N1CCC(C(=O)NO)(S(=O)(=O)c2ccc(Oc3ccc(C(F)(F)F)cc3)cc2)CC1` [Example 326], the IC50 in test [1] (setting [4]) was 0.00045 µM; in test [2] (setting [5]), 0.6 nM; in test [3] (setting [6]), above 10 µM.
Take `CC1CC(C)CN(C(=O)C2CCN(c3ccc(S(=O)(=O)C4(C(=O)NO)CCN(C(=O)CNCCO)CC4)cc3)CC2)C1` (stereo not drawn) [Example 286]: the values for the IC50 in test [1] (setting [4]), in test [2] (setting [5]) and in test [3] (setting [6]) were above 10 µM, 60 nM and above 10 µM, respectively.
Consider `O=C(Nc1ccccc1)C1CCN(c2ccc(S(=O)(=O)C3(C(=O)NO)CCN(C4CC4)CC3)cc2)CC1` [Example 243, 1-Cyclopropyl-N-hydroxy-4-[[4-[4-[(phenylamino)carbonyl]-1-piperidinyl]phenyl]sulfonyl]-4-piperidinecarboxamide, Monohydrochloride], for which the IC50 was 0.42 µM in test [1] (setting [4]), 11.3 nM in test [2] (setting [5]) and above 10 µM in test [3] (setting [6]).
For `O=C(NO)C1(S(=O)(=O)c2ccc(N3CC[C@@H](OCc4ccc(OC(F)(F)F)cc4)C3)cc2)CCOCC1` [Example 467], in that order: 0.14 µM, 27 nM and above 10 µM.
For the compound `O=C(c1ccccc1)N1CCC(C(=O)NO)(S(=O)(=O)c2ccc(Oc3ccc(OC(F)(F)F)cc3)cc2)CC1` [Example 91], the IC50 in test [1] (setting [4]) is below 0.0001 µM; in test [2] (setting [5]), 0.3 nM; in test [3] (setting [6]) it was above 10 µM.
As to `O=C(c1ccco1)N1CCC(C(=O)NO)(S(=O)(=O)c2ccc(N3CCC(OCc4ccc(F)cc4)CC3)cc2)CC1` [Example 424], the IC50 in test [1] (setting [4]) was 0.08 µM; in test [2] (setting [5]), 5.5 nM; in test [3] (setting [6]), above 10 µM.
Consider `CC1CCCC(S(=O)(=O)C2CCN(c3ccc(S(=O)(=O)C4(C(=O)NO)CCOCC4)cc3)CC2)C1` (stereo not drawn) [Example 822], for which the IC50 in test [1] (setting [4]) is 0.21 µM; in test [2] (setting [5]) it was 10 nM; in test [3] (setting [6]), above 10 µM.
For `O=C(NO)C1(S(=O)(=O)c2ccc(N3CCC(c4ccc(Cl)cc4)CC3)cc2)CCOCC1` [Example 541], the IC50 in test [1] (setting [4]) was 0.002 µM; in test [2] (MMP-13 IC50 (nM), recombinant human MMP-13, MCA peptide substrate 4 μM, pH 7.5, room temperature) it was 0.7 nM; in test [3] (setting [6]), above 10 µM.
As to `CC1CC(C)CN(C(=O)C2CCN(c3ccc(S(=O)(=O)C4(C(=O)NO)CCN(C(=O)CNCc5ccncc5)CC4)cc3)CC2)C1` (stereo not drawn) [Example 285], the IC50 in test [1] (setting [4]) was 9 µM; in test [2] (setting [5]) it was 19.3 nM; in test [3] (setting [6]) it was above 10 µM.
Consider `O=C(c1ccccc1)N1CCN(c2ccc(S(=O)(=O)C3(C(=O)NO)CCOCC3)cc2)CC1` [Example 593], for which the IC50 was 0.65 µM in test [1] (setting [4]), 420 nM in test [2] (setting [5]) and above 10 µM in test [3] (setting [6]).
For `CC(C)N1CCC(C(=O)NO)(S(=O)(=O)c2ccc(Oc3ccc(OC(F)(F)F)cc3)cc2)CC1` [Example 453], in that order: 0.035 µM, 0.4 nM and above 10 µM.
On to `O=C(CCCCNCc1cccnc1)N1CCC(C(=O)NO)(S(=O)(=O)c2ccc(Oc3ccc(C(F)(F)F)cc3)cc2)CC1` [Example 333], for which the IC50 was 0.0002 µM in test [1] (setting [4]), 0.8 nM in test [2] (setting [5]) and above 10 µM in test [3] (setting [6]).
As for `O=C(NO)C1(S(=O)(=O)c2ccc(Oc3ccc(OC(F)(F)F)cc3)cc2)CCN(S(=O)(=O)c2ccccc2)CC1` [Example 194], the IC50 in test [1] (setting [4]) was below 0.0001 µM; in test [2] (setting [5]), 0.3 nM; in test [3] (setting [6]), above 7.3 µM.
Take `O=C(NO)C1(S(=O)(=O)c2ccc(Oc3ccc(OC(F)(F)F)cc3)cc2)CCN(CCCN2CCOCC2)CC1` [Example 264, N-Hydroxy-1-[3-(4-morpholinyl)propyl]-4-[[4-[4-(trifluoromethoxy)phenoxy]phenyl]sulfonyl]-4-piperidinecarboxamide Dihydrochloride]: the concentration for half-maximal inhibition (IC50) in test [1] (setting [4]) is below 0.0001 µM; in test [2] (setting [5]), 0.2 nM; in test [3] (setting [6]) it was 4.5 µM.
As for `C#CCN1CCC(C(=O)NO)(S(=O)(=O)c2ccc(S(=O)(=O)c3ccccc3)cc2)CC1` [Example 457], the IC50 was 2.7 µM in test [1] (setting [4]), 1800 nM in test [2] (setting [5]) and above 10 µM in test [3] (setting [6]).
For `COCCN1CCC(C(=O)NO)(S(=O)(=O)c2ccc(N3CCC(OCc4ccc(Cl)cc4)CC3)cc2)CC1` [Example 445] the same measures were 1.2 µM, 90 nM and above 10 µM.
For `O=C(C1CCN(c2ccc(S(=O)(=O)C3(C(=O)NO)CCOCC3)cc2)CC1)N1CCN(c2ccc(F)cc2F)CC1` [Example 36], the IC50 in test [1] was 2.1 µM; in test [2] (read-out: MMP-13 IC50), 15.8 nM; in test [3], above 10 µM.
Consider `O=C(NO)C1(S(=O)(=O)c2ccc([C@H]3CC[C@@H](c4ccccc4)CC3)cc2)CCOCC1` [Example 781], for which the IC50 in test [1] (setting [4]) is 5.1 µM; in test [2] (setting [5]), 800 nM; in test [3] (setting [6]) it was above 10 µM.
On to `O=C(NO)C1(S(=O)(=O)c2ccc(N3CCN(c4ccc(OC(F)(F)F)cc4)CC3)cc2)CCOCC1` [Example 695], for which the IC50 in test [1] (setting [4]) was 0.0227 µM; in test [2] (setting [5]) it was 2 nM; in test [3] (setting [6]), above 10 µM.
For `C[C@@H]1C[C@H](C)CN(C(=O)C2CCN(c3ccc(S(=O)(=O)C4(C(=O)NO)CCN(C(=O)CCl)CC4)cc3)CC2)C1` [Example 276], in that order: above 10 µM, 37.3 nM and above 10 µM.
`O=C(C1CCN(c2ccc(S(=O)(=O)C3(C(=O)NO)CCOCC3)cc2)CC1)N1CCN(CCN2CCOCC2)CC1` [Example 42]: the figures for the IC50 in test [1], in test [2] (read-out: MMP-13 IC50) and in test [3] were above 10 µM, 82.5 nM and above 10 µM, respectively.
For `COCCN1CCC(C(=O)NO)(S(=O)(=O)c2ccc(N3CCC(C(=O)N4CC(C)CC(C)C4)CC3)cc2)CC1` (stereo not drawn) [Example 233, 4-[[4-[4-[(3,5-Dimethyl-1-piperidinyl)carbonyl]-1-piperidinyl]-phenyl]sulfonyl]-N-hydroxy-1-(2-methoxyethyl)-4-piperidinecarboxamide, Monohydrochloride], the values for the IC50 in test [1], in test [2] (read-out: MMP-13 IC50) and in test [3] were 2.05 µM, 43.5 nM and above 10 µM, respectively.
Take `O=C(NCc1ccccc1)N1CC(Oc2ccc(S(=O)(=O)C3(C(=O)NO)CCOCC3)cc2)C1` [Example 658]: the IC50 in test [1] (setting [4]) was 1 µM; in test [2] (setting [5]), 12.2 nM; in test [3] (setting [6]), above 10 µM.
In the case of `O=C(NO)C1(S(=O)(=O)c2ccc(N3CCC(OCc4ccc(Cl)cc4)CC3)cc2)CCOCC1` [Example 170], the IC50 was 0.2 µM in test [1] (setting [4]), 2.4 nM in test [2] (setting [5]) and above 10 µM in test [3] (setting [6]).

The record behind these values is patent US6750228B1, “Aromatic sulfone hydroxamic acid metalloprotease inhibitor” (priority 1997, dated 2004).
